Assay results as given in ChEMBL document CHEMBL1130673, “Hydroindenic-guanylhydrazones. Synthesis and evaluation as inotropic agents” (1998).

Tests used:
Cavia porcellus [1] = species on record: Cavia porcellus; experiment: Compound was measured for inotropic activity against isolated guinea pig atria at concentration 3 x 10e-4; format: functional
Cavia porcellus [2] = species on record: Cavia porcellus; experiment: Compound was measured for inotropic activity against isolated guinea pig atria at concentration 3 x 10e-4; Negative inotropic activity; format: functional

CC(=O)OC[C@H]1CC[C@]2(O)CC3(CC[C@]12C)SCCCS3
Reduction (Cavia porcellus [1]): 56%

C[C@]12CCC(OC(c3ccccc3)(c3ccccc3)c3ccccc3)C[C@@]1(O)CC[C@@H]2CO (stereo not given in full)
Activity (Cavia porcellus [2]): Negative inotropic activity

C[C@]12CC/C(=N\N=C(N)N)C[C@@]1(O)CCC2/C=N/N=C(N)N (stereo not given in full)
Activity (Cavia porcellus [2]): Negative inotropic activity

C[C@]12CCC3(C[C@@]1(O)CCC2/C=N/N=C(N)N)OCCO3 (stereo not given in full)
Activity (Cavia porcellus [2]): Negative inotropic activity

COC(=O)/C=C/[C@H]1CC[C@]2(O)CC3(CC[C@]12C)SCCCS3
Reduction (Cavia porcellus [1]): 85%
